Laboratory results from patent US12667614B2, “Bacterial microcompartment virus-like particles” (National University of Singapore, priority 2020, dated 2026).

Experiments:
Type in all cases: biochemical
[1] = molecular target: T1, Free LacZ (E. coli beta-galactosidase), N-terminal His6, fused to S2CP(30); LacZ-S2CP(30), SEQ ID NO: 103 (Escherichia coli, UniProt P00722); assay: Steady-state kinetics of free LacZ (ONPG hydrolysis); settings: free LacZ 10 nM; ONPG 0.050 to 1.5 mM; TBS-50/350 pH 8.0, 1 mM MgCl2; mean with standard error, triplicates
T1 construct: homotetramer
T1 sequence (P00722 other isoform, or with tags, fused parts or gaps): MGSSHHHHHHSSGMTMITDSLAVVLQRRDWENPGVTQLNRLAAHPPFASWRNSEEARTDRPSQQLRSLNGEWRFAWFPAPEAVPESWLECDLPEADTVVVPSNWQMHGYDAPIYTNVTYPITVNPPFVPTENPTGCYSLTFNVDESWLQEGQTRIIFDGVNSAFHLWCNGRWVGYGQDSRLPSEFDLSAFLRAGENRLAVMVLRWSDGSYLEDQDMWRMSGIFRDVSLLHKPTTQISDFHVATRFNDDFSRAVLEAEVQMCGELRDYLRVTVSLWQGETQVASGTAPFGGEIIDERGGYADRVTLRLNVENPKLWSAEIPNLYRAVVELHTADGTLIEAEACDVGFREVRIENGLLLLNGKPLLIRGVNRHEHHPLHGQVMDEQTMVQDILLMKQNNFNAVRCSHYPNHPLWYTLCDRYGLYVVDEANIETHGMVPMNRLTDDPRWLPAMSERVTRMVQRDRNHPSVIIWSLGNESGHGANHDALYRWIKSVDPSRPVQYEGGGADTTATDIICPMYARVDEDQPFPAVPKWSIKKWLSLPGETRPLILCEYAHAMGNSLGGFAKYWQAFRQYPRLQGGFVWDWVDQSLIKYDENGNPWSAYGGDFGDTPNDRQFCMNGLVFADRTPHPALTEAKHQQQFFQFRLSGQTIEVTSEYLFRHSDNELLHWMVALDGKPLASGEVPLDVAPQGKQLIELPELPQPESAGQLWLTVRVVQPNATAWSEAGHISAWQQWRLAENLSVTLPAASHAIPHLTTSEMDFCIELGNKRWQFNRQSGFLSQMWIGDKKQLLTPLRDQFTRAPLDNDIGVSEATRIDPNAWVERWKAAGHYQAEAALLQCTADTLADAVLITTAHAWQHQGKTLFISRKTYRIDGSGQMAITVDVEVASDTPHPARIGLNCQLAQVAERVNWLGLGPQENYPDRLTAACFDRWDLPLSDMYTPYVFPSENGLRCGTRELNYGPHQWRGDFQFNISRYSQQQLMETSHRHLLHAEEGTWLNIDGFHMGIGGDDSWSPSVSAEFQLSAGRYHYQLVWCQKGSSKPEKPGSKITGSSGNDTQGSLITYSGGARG
Method: (§1) For APEX2, all reagents were made to the appropriate working concentrations using TBS-50/350 pH 8.0. Working solutions of guaiacol and H2O2, both at 10 mM, were prepared on the day of assay. The guaiacol solution was shaken vigorously at 30° C. to ensure complete dissolution before equilibration back to room temperature. The assay concentration for APEX2 was 10 nM, H2O2 1 mM and that for guaiacol ranged from 0.20 to 2.0 mM. Total reaction volume was 200 μL. Reactions were monitored by the absorbance of tetraguaiacol formed at 470 nm using a BioTek Synergy™ HT microplate reader. […] This time point was taken for initial rate, V0, measurement. Kinetic constants were obtained using non-linear least square Michaelis-Menten fitting in GraphPad Prism software.
For steady-state kinetics of LacZ, all reagents were made to the appropriate working concentrations using TBS-50/350 pH 8.0 supplemented with 1 mM MgCl2. Working solutions of ONPG at 10 mM were prepared from a 50 mM stock solution in DMSO on the day of assay. The assay concentration for LacZ was 10 nM and that for ONPG (ortho-nitrophenyl-β-galactoside) ranged from 0.050 to 1.5 mM. Total reaction volume was 100 μL. Hydrolysis of ONPG was tracked by absorbance measurements at 405 nm. […]

[2] = molecular target: T2, LacZ + shell: LacZ (E. coli beta-galactosidase), N-terminal His6, fused to S2CP(30), SEQ ID NO: 103, encapsulated in Cso-BMC (Cso-PSIIH) shell (Escherichia coli, UniProt P00722); assay: Steady-state kinetics of Cso-BMC encapsulated LacZ (ONPG hydrolysis)
T2 construct: homotetramer
T2 sequence (P00722 other isoform, or with tags, fused parts or gaps): as above
Method: as §1
For steady-state kinetics of LacZ, all reagents were made to the appropriate working concentrations using TBS-50/350 pH 8.0 supplemented with 1 mM MgCl2. Working solutions of ONPG at 10 mM were prepared from a 50 mM stock solution in DMSO on the day of assay. The assay concentration for LacZ was 10 nM and that for ONPG (ortho-nitrophenyl-β-galactoside) ranged from 0.050 to 1.5 mM. Total reaction volume was 100 μL. Hydrolysis of ONPG was tracked by absorbance measurements at 405 nm.
To probe the capacity of the Cso-BMC for encasing enzymes of considerably different molecular sizes, an evolved pea cytosolic ascorbate peroxidase (APEX2), a 27.0 kDa monomer [Lam et al., Nature Methods 12(1): 51-54 (2015)], and E. coli beta-galactosidase (LacZ), a 466.0 kDa homotetramer, were chosen for encapsulation [Golan, et al., Biochimica et Biophysica Acta (BBA)—Bioenergetics, 1293(2): 238-242; Lam et al., Nature Methods 12(1): 51-54 (2015)]. […] Enzymes were also N-terminally tagged with the hexahistidine (Hiss) tag to facilitate downstream removal of unencapsulated enzymes that might co-purify with shells (Nichols, Kennedy, & Tullman-Ercek, 2019). Cso-PSIIH shells co-expressed with enzymes were constructed and purified. SDS-PAGE analysis and Western blotting confirmed the presence of the target enzymes in shell samples (FIG. 18A-B) and the average copy numbers of enzymes per shell were estimated by Coomassie blue densitometry (Table 8) [Hagen, A., et al., Nature Communications 9: 2881 (2018); Nichols et al., Methods in Enzymology, 617, 155-186 (2019)].
Encapsulation of an enzyme into a protein shell is known to alter the enzyme's catalytic properties in some cases. To probe how encapsulation by the Cso-BMC might affect the catalytic efficiencies of APEX2 and LacZ, we performed steady-state kinetics of both free and encapsulated enzymes and fitted the data to the Michaelis-Menten model to obtain the turnover number (kcat), Michaelis-Menten constant (KM), and catalytic efficiency (kcat/KM) (Table 8, FIG. 19). […]

[3] = molecular target: T3, APEX2 + shell: APEX2 (evolved pea cytosolic ascorbate peroxidase), N-terminal His6, fused to S2CP(30), SEQ ID NO: 110, encapsulated in Cso-BMC (Cso-PSIIH) shell (Glycine max, UniProt Q43758, A134P/E112K/K14D/W41F); assay: Steady-state kinetics of Cso-BMC encapsulated APEX2 (guaiacol oxidation); settings: decreased to
T3 sequence (Q43758 with tags, fused parts or gaps A134P/E112K/K14D/W41F): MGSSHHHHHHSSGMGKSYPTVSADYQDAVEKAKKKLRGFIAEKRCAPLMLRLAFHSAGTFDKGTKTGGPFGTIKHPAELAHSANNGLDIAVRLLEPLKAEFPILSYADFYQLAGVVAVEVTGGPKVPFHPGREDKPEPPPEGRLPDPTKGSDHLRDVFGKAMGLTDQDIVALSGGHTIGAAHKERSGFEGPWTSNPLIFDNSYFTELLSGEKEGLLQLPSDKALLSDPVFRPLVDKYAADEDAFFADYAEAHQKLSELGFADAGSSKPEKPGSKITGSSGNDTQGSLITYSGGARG
Method: as §1
To probe the capacity of the Cso-BMC for encasing enzymes of considerably different molecular sizes, an evolved pea cytosolic ascorbate peroxidase (APEX2), a 27.0 kDa monomer [Lam et al., Nature Methods 12(1): 51-54 (2015)], and E. coli beta-galactosidase (LacZ), a 466.0 kDa homotetramer, were chosen for encapsulation [Golan, et al., Biochimica et Biophysica Acta (BBA)—Bioenergetics, 1293(2): 238-242; Lam et al., Nature Methods 12(1): 51-54 (2015)]. […]

[4] = encapsulated LacZ 10 nM, ONPG 0.050 to 1.5 mM, TBS-50/350 pH 8.0, 1 mM MgCl2, mean with standard error, triplicates

For `O=[N+]([O-])c1ccccc1O[C@@H]1O[C@H](CO)[C@H](O)[C@H](O)[C@H]1O` [ONPG, ortho-nitrophenyl-β-galactoside], the kcat [1] was 258 ± 17 s⁻¹, the kcat/KM [1] was 15.2 ± 2.05 × 10^5 (s^−1 · M^−1) and the “kcat/KM of encapsulated LacZ compared with the free enzyme” value ([2]; comparison in words with free LacZ) was “not significantly different from the free enzyme”. For the same compound, the Km [2, 4] was 140 ± 20 µM, the kcat [2, 4] was 200 ± 14 s⁻¹ and the kcat/KM [2, 4] was 14.3 ± 2.27 × 10^5 (s^−1 · M^−1).
With `COc1ccccc1O` [guaiacol] the “kcat/KM of encapsulated APEX2 relative to the free enzyme” value [3] was “approximately 30%”.
